Experimental data published in publication PMC9911797, “Novel TLR7/8 agonists promote activation of HIV-1 latent reservoirs and human T and NK cells” (Frontiers in Microbiology, 2023).

Key:
hTLR7 = target: T1, hTLR7 (Homo sapiens, UniProt Q9NYK1); assay: HEK-Blue hTLR7 SEAP reporter assay; format: cell-based; conditions: HEK-Blue hTLR7 cells, SEAP in supernatant
T1 construct: host or cells: HEK-Blue hTLR7 (HEK293-derived)
T1 sequence (Q9NYK1 27-1049): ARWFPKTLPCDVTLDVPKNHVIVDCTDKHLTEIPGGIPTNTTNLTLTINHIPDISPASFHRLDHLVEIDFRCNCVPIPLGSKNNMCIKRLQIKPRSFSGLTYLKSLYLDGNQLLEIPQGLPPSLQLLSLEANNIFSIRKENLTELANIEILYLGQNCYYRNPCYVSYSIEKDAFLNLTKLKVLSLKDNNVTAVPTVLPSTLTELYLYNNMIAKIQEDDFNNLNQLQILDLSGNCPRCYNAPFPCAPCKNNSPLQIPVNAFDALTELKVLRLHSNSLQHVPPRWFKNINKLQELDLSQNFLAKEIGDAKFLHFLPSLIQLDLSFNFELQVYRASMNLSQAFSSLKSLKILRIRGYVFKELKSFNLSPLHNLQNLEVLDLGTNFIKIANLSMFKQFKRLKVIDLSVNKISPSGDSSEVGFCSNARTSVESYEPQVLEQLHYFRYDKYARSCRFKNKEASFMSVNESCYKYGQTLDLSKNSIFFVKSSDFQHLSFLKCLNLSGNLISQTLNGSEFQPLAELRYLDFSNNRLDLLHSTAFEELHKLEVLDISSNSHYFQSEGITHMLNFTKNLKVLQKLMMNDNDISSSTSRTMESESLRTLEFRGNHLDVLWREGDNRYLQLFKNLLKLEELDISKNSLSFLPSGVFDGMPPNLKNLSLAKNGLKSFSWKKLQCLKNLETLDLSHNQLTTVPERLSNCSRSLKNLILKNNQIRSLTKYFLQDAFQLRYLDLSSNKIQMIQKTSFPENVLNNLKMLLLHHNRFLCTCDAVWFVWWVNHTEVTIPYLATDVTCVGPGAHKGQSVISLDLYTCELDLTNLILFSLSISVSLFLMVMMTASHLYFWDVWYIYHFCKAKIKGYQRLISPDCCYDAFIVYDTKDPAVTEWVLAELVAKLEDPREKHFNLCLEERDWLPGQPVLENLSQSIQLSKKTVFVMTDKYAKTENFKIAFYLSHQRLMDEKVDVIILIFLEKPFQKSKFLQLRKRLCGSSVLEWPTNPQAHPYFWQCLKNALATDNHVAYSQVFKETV
Description: Starting with the lead compound, 76 pyrido [3,2-d] pyrimidine derivatives were synthesized and optimized through structural modification from the deep hydrophobic region to the solvent-exposed region. Seventy-six compounds were evaluated for their in vitro activity using HEK-Blue hTLR7 or hTLR8 reporter cells, stably expressing the human TLR7 or TLR8 and an NF-κB/AP1-inducible SEAP (secreted embryonic alkaline phosphatase reporter gene).
Add 20 μl various concentrations of TLR agonists (10 dilutions) and in a 96-well plate. Then HEK-Blue hTLR7 and hTLR8 cells were suspended to 4 × 10^5 cells/ml in HEK-Blue Detection (InvivoGen) medium and added 180 μl per well. The plates were incubated at 37°C in 5% CO2 for 12 ~ 16 h. Stimulation with a hTLR7or hTLR8 ligand activates NF-κB to induce the production of secreted embryonic alkaline phosphatase (SEAP) in the culture supernatant. SEAP could be measured at OD630nm on an ELISA plate reader.

[1] = test system: PBMCs from healthy donors; assay: Surface activation markers on immune cells of healthy donor PBMCs (flow cytometry); format: cell-based, human; conditions: 1 μM, 24 h
From the text: TLR family is essential in connecting innate immunity with acquired immunity in fighting against infection. It was then studied whether the identified TLR7/8 agonists could activate cell populations within PBMC, thereby potentiating their effector functions. […] The representative diagram of the gating strategy for each immune cell is shown in Supplementary Figure S5. All tested TLR7/8 agonists activated CD69 and NKG2D expression on CD56^bright and CD56^dim NK cells (Figures 6A–D), as well as CD69 and CD25 expression on CD4+ and CD8+ T cells (Figures 6E–H).
Then cells were collected and washed in FACS buffer (PBS + 2%FBS). Cells were incubated by fluorescence antibodies at 4°C for 30 min. For T cells, CD3-PE-Cy7 (Biolegend), CD4-PE (BD), CD8-FITC (Biolegend), CD25-BV421 (Biolegend), CD69-BV510 (Biolegend). For NK cells, CD16-PE (Biolegend), CD56-APC (Biolegend), CD69-BV510 (Biolegend), NKG2D-BV421 (Biolegend). For monocytes, CD14-PE-Cy7 (Invitrogen), CD40-APC-Cy7 (Biolegend) HLR-DR-BV510 (Biolegend). For dendritic cells, anti-human lineage cocktail-APC (Biolegend), CD11c-PE-Cy7 (Biolegend), CD80-BV510 (Biolegend), CD86-AF488 (Biolegend).

CCCCNc1nc(N)nc2ccc(Cc3ccc(CN(C)C)cc3)nc12 [D018]
EC50 (hTLR7): 40.2 nM
CD69/NKG2D on NK cells and CD69/CD25 on CD4+ and CD8+ T cells [1]: most potent
